According to publication PMC3144920, “Peptide Substrates for Rho-Associated Kinase 2 (Rho-Kinase 2/ROCK2)” (PLoS ONE, 2011):
pKi: −log10 of the molar value. “Also recorded” adds a separate entry of the source. Where a SMILES comes first, the peptide text is derived from it.

Legend:
Type in all cases: biochemical
[1] = target: T1, ROCK2 (Homo sapiens, UniProt O75116); experiment: Inhibition of ROCK2 phosphorylation of S6K substrate peptide by inhibitor peptides; conditions: competitive; S6K peptide (KRRRLASLR) as substrate, 1.25 µg/mL ROCK2, 100 µM ATP, MOPS pH 7.2; Dixon plot and Lineweaver–Burk plot
T1 construct: purchased Carna Biosciences, Kobe, Japan
T1 sequence (O75116 1-553 limits assumed): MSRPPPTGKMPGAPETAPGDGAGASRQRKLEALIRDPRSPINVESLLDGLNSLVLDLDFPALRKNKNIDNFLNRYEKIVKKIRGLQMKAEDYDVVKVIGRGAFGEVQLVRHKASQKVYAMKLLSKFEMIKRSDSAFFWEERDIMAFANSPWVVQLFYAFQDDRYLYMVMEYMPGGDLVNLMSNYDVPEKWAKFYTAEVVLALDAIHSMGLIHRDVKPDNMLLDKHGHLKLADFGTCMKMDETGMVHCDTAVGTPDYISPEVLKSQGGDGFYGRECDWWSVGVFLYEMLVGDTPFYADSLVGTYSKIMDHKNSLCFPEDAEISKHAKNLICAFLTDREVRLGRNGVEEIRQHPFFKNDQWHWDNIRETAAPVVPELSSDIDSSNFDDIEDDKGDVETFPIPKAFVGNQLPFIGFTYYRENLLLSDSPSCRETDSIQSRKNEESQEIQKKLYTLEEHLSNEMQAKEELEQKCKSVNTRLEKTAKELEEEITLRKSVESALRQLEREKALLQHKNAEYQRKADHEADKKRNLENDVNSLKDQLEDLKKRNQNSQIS
Method: The phosphorylatable amino acid (threonine) of five peptide substrates (R4, R22, R133, R134, and R135) was replaced with alanine. […] Ki values were obtained from the Dixon plot and Lineweaver–Burk plot. Inhibitor peptides were added into 25 µL of buffer (5 mM MOPS at pH 7.2, 2.5 mM beta-glycerophosphate, 1 mM EGTA, 4 mM MgCl2, 0.05 mM DTT, and 100 µM ATP) containing S6K substrate peptide and 1.25 µg/mL ROCK2.

[2] = target: T1, ROCK2; experiment: Kinetic analysis of peptide substrate phosphorylation by ROCK2 (Lineweaver–Burk plot)
Method: The kinase activity of recombinant ROCK2 (Carna Biosciences, Kobe, Japan), ERK1 (Upstate, Millipore, Temecula, CA, USA), PKA (Promega, Madison, WI, USA), and PKCα (Sigma–Aldrich, St. Louis, MO, USA) for the peptide substrates was determined by measuring ^32P transfer from [γ-^32P]ATP into substrate peptides according to manufacturer recommendations. Phosphorylation reactions by ROCK2 were carried out in 25 µL of buffer (5 mM 3-(N-morpholino)propanesulfonic acid (MOPS) at pH 7.2, 2.5 mM beta-glycerophosphate, 1 mM ethylene glycol tetra-acetic acid (EGTA), 4 mM MgCl2, 0.05 mM dithiothreitol (DTT), and 100 µM adenosine triphosphate (ATP)) containing peptides and 1.25 µg/ml ROCK2. For PKCα, phosphorylation reactions were carried out in 25 µL of buffer (20 mM HEPES at pH 7.4, 10 mM MgCl2, 1 mM CaCl2, 100 µM ATP, 40 µg/mL phosphatidylserine, and 20 µg/mL diacylglycerol) containing peptides and 0.5 µg/mL PKCα. Phosphorylation reactions by PKA were carried out in 25 µL of buffer (50 mM HEPES at pH 7.4, 1 mM CaCl2, 10 mM MgCl2, 100 µM ATP) containing peptides and 1.6 µg/mL PKA. For ERK1, phosphorylation reactions were carried out in 25 µL of buffer (25 mM Tris-HCl at pH 7.5, 20 µM EGTA, 15 mM magnesium acetate, and 100 µM ATP) containing peptides and 0.5 µg/mL ERK1. For each experimental condition, values for control reactions lacking substrate peptides were subtracted as blanks. The assay mixture was incubated for 10 min at 25°C, and the reaction terminated by the addition of 5 µL of 30% trichloroacetic acid (TCA). The reaction mixture (24 µL) was spotted onto P-81 phosphocellulose membranes. The membranes were washed thrice with 5% TCA, dried with acetone, and the radioactivity of each membrane determined by liquid scintillation counting. Kinetic analyses of enzyme activity were determined using the Lineweaver–Burk plot. […]

[3] = target: T2, ERK1 (Homo sapiens, UniProt P27361); experiment: Radiolabel assay using [γ-32P]ATP: phosphorylation of peptide substrates by ERK1; conditions: 0.5 µg/mL ERK1, 100 µM ATP, Tris-HCl pH 7.5, 10 min at 25°C; Fig. 3, in words
T2 construct: purchased Upstate, Millipore, Temecula, CA, USA
T2 sequence (P27361 whole entry, species assumed): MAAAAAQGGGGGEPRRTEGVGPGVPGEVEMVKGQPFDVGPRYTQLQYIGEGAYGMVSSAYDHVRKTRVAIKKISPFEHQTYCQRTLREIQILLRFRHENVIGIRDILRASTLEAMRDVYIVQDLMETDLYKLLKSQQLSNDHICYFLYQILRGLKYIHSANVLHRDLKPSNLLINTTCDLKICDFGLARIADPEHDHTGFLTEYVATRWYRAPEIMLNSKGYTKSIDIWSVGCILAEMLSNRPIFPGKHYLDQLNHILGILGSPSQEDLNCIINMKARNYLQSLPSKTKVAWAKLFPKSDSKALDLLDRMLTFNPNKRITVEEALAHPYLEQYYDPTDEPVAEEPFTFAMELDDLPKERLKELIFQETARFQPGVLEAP
Method: (§1) The kinase activity of recombinant ROCK2 (Carna Biosciences, Kobe, Japan), ERK1 (Upstate, Millipore, Temecula, CA, USA), PKA (Promega, Madison, WI, USA), and PKCα (Sigma–Aldrich, St. Louis, MO, USA) for the peptide substrates was determined by measuring ^32P transfer from [γ-^32P]ATP into substrate peptides according to manufacturer recommendations. Phosphorylation reactions by ROCK2 were carried out in 25 µL of buffer (5 mM 3-(N-morpholino)propanesulfonic acid (MOPS) at pH 7.2, 2.5 mM beta-glycerophosphate, 1 mM ethylene glycol tetra-acetic acid (EGTA), 4 mM MgCl2, 0.05 mM dithiothreitol (DTT), and 100 µM adenosine triphosphate (ATP)) containing peptides and 1.25 µg/ml ROCK2. For PKCα, phosphorylation reactions were carried out in 25 µL of buffer (20 mM HEPES at pH 7.4, 10 mM MgCl2, 1 mM CaCl2, 100 µM ATP, 40 µg/mL phosphatidylserine, and 20 µg/mL diacylglycerol) containing peptides and 0.5 µg/mL PKCα. Phosphorylation reactions by PKA were carried out in 25 µL of buffer (50 mM HEPES at pH 7.4, 1 mM CaCl2, 10 mM MgCl2, 100 µM ATP) containing peptides and 1.6 µg/mL PKA. For ERK1, phosphorylation reactions were carried out in 25 µL of buffer (25 mM Tris-HCl at pH 7.5, 20 µM EGTA, 15 mM magnesium acetate, and 100 µM ATP) containing peptides and 0.5 µg/mL ERK1. For each experimental condition, values for control reactions lacking substrate peptides were subtracted as blanks. The assay mixture was incubated for 10 min at 25°C, and the reaction terminated by the addition of 5 µL of 30% trichloroacetic acid (TCA). The reaction mixture (24 µL) was spotted onto P-81 phosphocellulose membranes. The membranes were washed thrice with 5% TCA, dried with acetone, and the radioactivity of each membrane determined by liquid scintillation counting. Kinetic analyses of enzyme activity were determined using the Lineweaver–Burk plot.

[4] = target: T3, PKCα (Homo sapiens, UniProt P17252); experiment: Radiolabel assay using [γ-32P]ATP: phosphorylation of peptide substrates by PKCα; conditions: Fig. 3, in words; for CPM for PKCα: 0.5 µg/mL PKCα, 100 µM ATP, HEPES pH 7.4, 10 min at 25°C
T3 construct: purchased Sigma–Aldrich, St. Louis, MO, USA
Method: as §1

[5] = target: T4, PKA (Bos taurus, UniProt P00517); experiment: Radiolabel assay using [γ-32P]ATP: phosphorylation of peptide substrates by PKA; conditions: 1.6 µg/mL PKA, 100 µM ATP, HEPES pH 7.4, 10 min at 25°C; Fig. 3, in words
T4 construct: purchased Promega, Madison, WI, USA
Method: as §1

Molecule | pKi [1] | Km [2] [µM] | Vmax [2] [pmol/min/mg] | CPM for PKCα [4] | CPM for ROCK2 compared with ERK1 [3] | CPM for ROCK2 compared with PKCα [4] | CPM for ROCK2 compared with PKA [5]
CSCC[C@H](NC(=O)[C@H](Cc1c[nH]c2ccccc12)NC(=O)[C@H](Cc1ccc(O)cc1)NC(=O)[C@@H]1CCCN1C(=O)[C@H](CC(N)=O)NC(=O)CNC(=O)[C@@H](NC(=O)[C@@H](NC(=O)[C@H](C)NC(=O)[C@H](Cc1ccc(O)cc1)NC(=O)[C@H](CCCNC(=N)N)NC(=O)[C@H](CCCCN)NC(=O)[C@H](CCCCN)NC(=O)[C@H](CCCNC(=N)N)NC(=O)[C@H](CC(=O)O)NC(=O)[C@H](C)NC(=O)[C@@H](N)CCCCN)C(C)C)C(C)C)C(=O)O [R135 with alanine instead of threonine] (H-KADRKKRYAVVGNPYWM-OH; N-terminus and C-terminus assumed) | < 4.00 | – | – | – | – | – | –
CC[C@H](C)[C@H](NC(=O)[C@H](CCC(N)=O)NC(=O)[C@H](CCCNC(=N)N)NC(=O)[C@H](CC(C)C)NC(=O)[C@H](C)NC(=O)[C@H](CCCCN)NC(=O)[C@H](Cc1ccc(O)cc1)NC(=O)[C@H](CCCCN)NC(=O)[C@H](C)NC(=O)[C@@H](N)CCCNC(=N)N)C(=O)N[C@@H](CCCNC(=N)N)C(=O)O [R4 with alanine instead of threonine] (H-RAKYKALRQIR-OH) | 4.06 | – | – | – | – | – | –
KRRRLASLR [S6K, synthetic peptide S6K (…) used as a control for ROCK2, reference compound] | – | 3.1 | 23.1 | – | – | – | –
CSCC[C@H](NC(=O)[C@H](Cc1c[nH]c2ccccc12)NC(=O)[C@H](Cc1ccc(O)cc1)NC(=O)[C@@H]1CCCN1C(=O)[C@H](CC(N)=O)NC(=O)CNC(=O)[C@@H](NC(=O)[C@@H](NC(=O)[C@H](C)NC(=O)[C@H](Cc1ccc(O)cc1)NC(=O)[C@H](CCCNC(=N)N)NC(=O)[C@H](CCCCN)NC(=O)[C@H](CCCCN)NC(=O)[C@H](CCCNC(=N)N)NC(=O)[C@H](CC(=O)O)NC(=O)[C@H](CO)NC(=O)[C@@H](N)CCCCN)C(C)C)C(C)C)C(=O)O [R133 with alanine instead of threonine] (H-KSDRKKRYAVVGNPYWM-OH; N-terminus and C-terminus assumed) | < 4.00 | – | – | – | – | – | –
CSCC[C@H](NC(=O)[C@H](Cc1c[nH]c2ccccc12)NC(=O)[C@H](Cc1ccc(O)cc1)NC(=O)[C@@H]1CCCN1C(=O)[C@H](CC(N)=O)NC(=O)CNC(=O)[C@@H](NC(=O)[C@@H](NC(=O)[C@H](C)NC(=O)[C@H](Cc1ccc(O)cc1)NC(=O)[C@H](CCCNC(=N)N)NC(=O)[C@H](CCCCN)NC(=O)[C@H](CCCCN)NC(=O)[C@H](CCCNC(=N)N)NC(=O)[C@H](C)NC(=O)[C@@H]1CCCN1C(=O)[C@@H](N)CCCCN)C(C)C)C(C)C)C(=O)O [R22 with alanine instead of threonine] (H-KPARKKRYAVVGNPYWM-OH) | 4.94 | – | – | – | – | – | –
CSCC[C@H](NC(=O)[C@H](Cc1c[nH]c2ccccc12)NC(=O)[C@H](Cc1ccc(O)cc1)NC(=O)[C@@H]1CCCN1C(=O)[C@H](CC(N)=O)NC(=O)CNC(=O)[C@@H](NC(=O)[C@@H](NC(=O)[C@H](C)NC(=O)[C@H](Cc1ccc(O)cc1)NC(=O)[C@H](CCCNC(=N)N)NC(=O)[C@H](CCCCN)NC(=O)[C@H](CCCCN)NC(=O)[C@H](CCCNC(=N)N)NC(=O)[C@H](C)NC(=O)[C@H](CO)NC(=O)[C@@H](N)CCCCN)C(C)C)C(C)C)C(=O)O [R134 with alanine instead of threonine] (H-KSARKKRYAVVGNPYWM-OH) | 4.53 | – | – | – | – | – | –

Second part, led by results:

pKi [1] | Km [2] [µM] | Vmax [2] [pmol/min/mg] | CPM for PKCα [4] | Molecule | CPM for ROCK2 compared with ERK1 [3] | CPM for ROCK2 compared with PKCα [4] | CPM for ROCK2 compared with PKA [5]
– | 1.9 | 10.3 | – | KPARKKRYTVVGNPYWM [R22, peptide substrate for ROCK2 …, origin LIM-kinase 1 (LIMK1)] | higher CPM levels for ROCK2 than the other enzymes | much higher CPM for ROCK2 than that of PKCα; also recorded: higher CPM levels for ROCK2 than the other enzymes | higher CPM levels for ROCK2 than the other enzymes
– | 1.7 | 14.2 | high CPM | RAKYKTLRQIR [R4, peptide substrate for ROCK2 …, origin ERM family (Ezrin/ Radixin/ Moesin)] | – | – | –
– | 3.3 | 14.9 | high CPM | KSARKKRYTVVGNPYWM [R134, peptide substrate for ROCK2 …, origin LIMK2] | – | – | –
– | 3.6 | 10.0 | – | KSDRKKRYTVVGNPYWM [R133, peptide substrate for ROCK2 …, origin LIMK2] | higher CPM levels for ROCK2 than the other enzymes | much higher CPM for ROCK2 than that of PKCα; also recorded: higher CPM levels for ROCK2 than the other enzymes | higher CPM levels for ROCK2 than the other enzymes
– | 3.2 | 8.6 | – | KADRKKRYTVVGNPYWM [R135, peptide substrate for ROCK2 …, origin LIMK2] | higher CPM levels for ROCK2 than the other enzymes | much higher CPM for ROCK2 than that of PKCα; also recorded: higher CPM levels for ROCK2 than the other enzymes | higher CPM levels for ROCK2 than the other enzymes
